Measured values taken from patent US5824315A, “Binding affinity of antigenic peptides for MHC molecules” (Anergen, Inc., priority 1996, dated 1998).

test system: HLA-DR2; details: pH 6
Description: In order to compare the binding of various MBP peptides to DR2, purified DR2 at a concentration of 20 μg/ml was incubated with 50-fold molar excess of Bt-MBP peptides for 72 hours at varying pH, ranging from pH 5-10 binding buffer at 37° C. […] Monoclonal antibody against HLA-DR2 at a concentration of 20 μg/ml and BSA-biotin (with 0.014-1.80 pmoles (0.117-15 ng), were coated in 96-well microtiter plates (Nunc poly-Sorb, Baxter) overnight at 4° C. Plates were blocked with 1% fish gelatin. Prepared HLA-DR2-biotin peptide complexes were applied to the wells in duplicates ranging from 12.5 ng-200 ng (0.21-3.32 pmoles) in appropriate dilution buffers and incubated for 2 hours at room temperature. The wells were washed three times with PBS containing 0.01% Tween-20 to remove unbound peptide. Bound biotinylated peptides were detected colorimetrically using alkaline phosphatase conjugated streptavidin and p-nitrophenyl phosphate (disodium) in 0.1M diethnolamine as a substrate. Wells were read at 405 nm in microliter plate reader (Molecular Devices). The percent of DR2 with bound peptide was calculated using standard BSA-biotin (eight biotin molecules per BSA). Purified HLA-DR2 used in this study contains a mixture of DRB5*0101 and DRB1*1501 beta chains.
In the first experiment, the binding of MBP(84-102) peptide to purified DR2 was compared with MBP(83-102)Y83 peptide at various pH.

Structure (SMILES) | percent of DR2 occupied with bound peptide
CC[C@H](C)[C@H](NC(=O)[C@H](CC(N)=O)NC(=O)[C@H](CCCCN)NC(=O)[C@H](Cc1ccccc1)NC(=O)[C@H](Cc1ccccc1)NC(=O)[C@H](Cc1c[nH]cn1)NC(=O)[C@@H](NC(=O)[C@@H](NC(=O)[C@@H]1CCCN1C(=O)[C@H](CC(N)=O)NC(=O)[C@H](CCC(=O)O)NC(=O)[C@H](CC(=O)O)NC(=O)[C@H](C)NC(=O)CCCC[C@@H]1SC[C@@H]2NC(=O)N[C@@H]21)C(C)C)C(C)C)C(=O)N[C@H](C(=O)N[C@H](C(=O)N1CCC[C@H]1C(=O)N[C@@H](CCCNC(=N)N)C(=O)N[C@H](C(=O)N1CCC[C@H]1C(=O)N1CCC[C@H]1C(N)=O)[C@@H](C)O)[C@@H](C)O)C(C)C [MBP(83-102)A83, Bt-ADENPVVHFF KNIVTPRTPP-NH2] | 100%
CC[C@H](C)[C@H](NC(=O)[C@H](CC(N)=O)NC(=O)[C@H](CCCCN)NC(=O)[C@H](Cc1ccccc1)NC(=O)[C@H](Cc1ccccc1)NC(=O)[C@H](Cc1c[nH]cn1)NC(=O)[C@@H](NC(=O)[C@@H](NC(=O)[C@@H]1CCCN1C(=O)[C@H](CC(N)=O)NC(=O)[C@H](CCC(=O)O)NC(=O)[C@H](CC(=O)O)NC(=O)[C@H](CC(=O)O)NC(=O)CCCC[C@@H]1SC[C@@H]2NC(=O)N[C@@H]21)C(C)C)C(C)C)C(=O)N[C@H](C(=O)N[C@H](C(=O)N1CCC[C@H]1C(=O)N[C@@H](CCCNC(=N)N)C(=O)N[C@H](C(=O)N1CCC[C@H]1C(=O)N1CCC[C@H]1C(N)=O)[C@@H](C)O)[C@@H](C)O)C(C)C [MBP(83-102)D83, Bt-DDENPVVHFF KNIVTPRTPP-NH2] | 55%
CC[C@H](C)[C@H](NC(=O)[C@H](CC(N)=O)NC(=O)[C@H](CCCCN)NC(=O)[C@H](Cc1ccccc1)NC(=O)[C@H](Cc1ccccc1)NC(=O)[C@H](Cc1c[nH]cn1)NC(=O)[C@@H](NC(=O)[C@@H](NC(=O)[C@@H]1CCCN1C(=O)[C@H](CC(N)=O)NC(=O)[C@H](CCC(=O)O)NC(=O)[C@H](CC(=O)O)NC(=O)[C@H](Cc1ccccc1)NC(=O)CCCC[C@@H]1SC[C@@H]2NC(=O)N[C@@H]21)C(C)C)C(C)C)C(=O)N[C@H](C(=O)N[C@H](C(=O)N1CCC[C@H]1C(=O)N[C@@H](CCCNC(=N)N)C(=O)N[C@H](C(=O)N1CCC[C@H]1C(=O)N1CCC[C@H]1C(N)=O)[C@@H](C)O)[C@@H](C)O)C(C)C [MBP(83-102)F83, Bt-FDENPVVHFF KNIVTPRTPP-NH2] | 12%
CC[C@H](C)[C@H](NC(=O)[C@H](CC(N)=O)NC(=O)[C@H](CCCCN)NC(=O)[C@H](Cc1ccccc1)NC(=O)[C@H](Cc1ccccc1)NC(=O)[C@H](Cc1c[nH]cn1)NC(=O)[C@@H](NC(=O)[C@@H](NC(=O)[C@@H]1CCCN1C(=O)[C@H](CC(N)=O)NC(=O)[C@H](CCC(=O)O)NC(=O)[C@H](CC(=O)O)NC(=O)[C@H](CCCCN)NC(=O)CCCC[C@@H]1SC[C@@H]2NC(=O)N[C@@H]21)C(C)C)C(C)C)C(=O)N[C@H](C(=O)N[C@H](C(=O)N1CCC[C@H]1C(=O)N[C@@H](CCCNC(=N)N)C(=O)N[C@H](C(=O)N1CCC[C@H]1C(=O)N1CCC[C@H]1C(N)=O)[C@@H](C)O)[C@@H](C)O)C(C)C [MBP(83-102)K83, Bt-KDENPVVHFF KNIVTPRTPP-NH2] | 75%
CC[C@H](C)[C@H](NC(=O)[C@H](CC(N)=O)NC(=O)[C@H](CCCCN)NC(=O)[C@H](Cc1ccccc1)NC(=O)[C@H](Cc1ccccc1)NC(=O)[C@H](Cc1c[nH]cn1)NC(=O)[C@@H](NC(=O)[C@@H](NC(=O)[C@@H]1CCCN1C(=O)[C@H](CC(N)=O)NC(=O)[C@H](CCC(=O)O)NC(=O)[C@H](CC(=O)O)NC(=O)[C@H](CCC(N)=O)NC(=O)CCCC[C@@H]1SC[C@@H]2NC(=O)N[C@@H]21)C(C)C)C(C)C)C(=O)N[C@H](C(=O)N[C@H](C(=O)N1CCC[C@H]1C(=O)N[C@@H](CCCNC(=N)N)C(=O)N[C@H](C(=O)N1CCC[C@H]1C(=O)N1CCC[C@H]1C(N)=O)[C@@H](C)O)[C@@H](C)O)C(C)C [MBP(83-102)Q83, Bt-QDENPVVHFF KNIVTPRTPP-NH2] | 40%
CC[C@H](C)[C@H](NC(=O)[C@H](CC(N)=O)NC(=O)[C@H](CCCCN)NC(=O)[C@H](Cc1ccccc1)NC(=O)[C@H](Cc1ccccc1)NC(=O)[C@H](Cc1c[nH]cn1)NC(=O)[C@@H](NC(=O)[C@@H](NC(=O)[C@@H]1CCCN1C(=O)[C@H](CC(N)=O)NC(=O)[C@H](CCC(=O)O)NC(=O)[C@H](CC(=O)O)NC(=O)CCCC[C@@H]1SC[C@@H]2NC(=O)N[C@@H]21)C(C)C)C(C)C)C(=O)N[C@H](C(=O)N[C@H](C(=O)N1CCC[C@H]1C(=O)N[C@@H](CCCNC(=N)N)C(=O)N[C@H](C(=O)N1CCC[C@H]1C(=O)N1CCC[C@H]1C(N)=O)[C@@H](C)O)[C@@H](C)O)C(C)C [MBP(84-102), Bt-DENPVVHFFK NIVTPRTPP-NH2, reference compound] | 45%
